Results published in PMC10313921, “A living ex vivo platform for functional, personalized brain cancer diagnosis” (Cell Reports Medicine, 2023).

What was measured:
Type in all cases: cell-based, human
[1] = system: GBM8 (high-passage patient-derived GBM line); test: Drug screening of GBM8 tumor foci on OBSCs; details: GBM8 on OBSCs
Method: (§1) Tumor cells (0.17 μL, 25,000 cells) were seeded onto OBSCs 2h after slicing, with one tumor seeded in the center of each hemisphere for a total of two tumor foci per OBSC. BSM was changed 24h after slicing. Fluorescence images were taken 0 h, 24 h, and 96 h post-seeding for normalization of tumor size. Bioluminescence readouts were also taken at 0 h, 24 h, and 96 h post seeding for assessment of cell viability. Luciferin was added underneath the culture insert and allowed to incubate for 10 min before bioluminescence measurement on an AMI optical imaging system.
(§2) Tumor cells were seeded onto OBSCs 2h after slicing as described above. One day after tumor seeding, six concentrations of each drug were diluted in the media underneath each culture insert, or XRad was applied using an X-Rad 320 Precision X-ray machine (n = 4 tumor foci per concentration; n ≥ 24 tumor foci per drug per cell line). Three days after treatment, the bioluminescence of live tumor cells was measured using an AMI optical imager (Spectral Instruments) and dose-response curves were generated. Tumor survival was normalized to day one tumor fluorescence and compared to an untreated control group.
(§3) Several weighted parameters were factored into an overall drug sensitivity score.
(§4) For DSS parameters 1–6, therapeutic windows were calculated by comparing OBSC toxicity and tumor response at the doses where tumor kill passed through the DSS parameter (Table S1 and S3). For DSS parameter 7, the therapeutic window was calculated by comparing the slopes through the tumor EC50 and the OBSC tox EC50. For DSS parameter 8, the therapeutic window was calculated by comparing the areas under tumor kill and OBSC tox curves. Normalized therapeutic window ratios for DSS parameters 1–8 within each drug-tumor-OBSC interaction were calculated in the following manner: within each window, values ranged from +1 to −1, where values approaching +1 signify increasing tumor kill relative to normal tissue toxicity, and values approaching −1 indicate agents where tumors remained highly viable while toxicity to the normal OBSC tissue was elevated. DSS parameters 9–11 were determined based on the behavior of the tumor in response to the drug, as defined above.
(§5) All individually weighed parameters were added together to generate the DSS. Overall DSS from 0 to 100 signify increasing efficacy in tumor kill relative to OBSC toxicity, while scores from 0 to −100 describe scenarios in which tumors thrive more effectively than OBSCs for a given treatment. Dose-response values were calculated via linear interpolation of raw data, not from best-fit curve equations.

[2] = system: MB231Br (breast cancer metastasis to brain); test: Drug screening of MB231Br tumor foci on OBSCs; details: MB231BR on OBSCs
[3] = system: LN229 (established GBM line); test: Drug screening of LN229 tumor foci on OBSCs
Method: as §1, §2, §3, §4, §5

[4] = system: MS21 (low-passage patient-derived GBM line); test: Drug screening of MS21 tumor foci on OBSCs; details: MS21 on OBSCs
Method: as §1, §2, §3, §4, §5

[5] = system: U373WT (wild-type established GBM line); test: Drug screening of U373WT tumor foci on OBSCs; details: U373 WT on OBSCs
Method: as §1, §2, §3, §4, §5

[6] = system: PIS patient tumor tissue (intracranial sarcoma); test: Drug screening of uncultured patient tumor tissue PIS on OBSCs; details: PIS patient tissue; scale -100 to +100
Method: as §2
To engraft onto OBSCs, the cryopreserved/thawed or fresh brain tumor tissue was filtered through a 100 μm cell strainer. Each 50 mg of tissue was transfected with 1mL mcherry-FLuc Lentivirus at 1.5e7 vg/ml with 1μL polybrene for 4h at 37°C. After incubation, the brain tumor tissue was washed with PBS three times to remove the residual virus and reconstituted in PBS with a final volume of 150 μL. Then the tissue solution was engrafted atop OBSCs at ∼0.5 mg tissue in 3 μL of PBS on each hemisphere of the slice. The OBSC engrafted with patient tumor tissue was incubated at 37°C with 5% CO2 and 95% humidity. The BSM was changed after 24h and subsequently every 3 days. Tumor treatment studies were executed as described above for tumor lines. The viability of the patient tissue was measured by an AMI optical imaging system with the addition of 1.5 mg/mL luciferin underneath the culture insert.
as §3, §4, §5

[7] = system: PDIPG (low-passage pediatric patient-derived line); test: Drug screening of PDIPG tumor foci on OBSCs; details: PDIPG on OBSCs
Method: as §1, §2, §3, §4, §5

[8] = system: U373KO (RAD18 knockout of U373WT via CRISPR); test: Drug screening of U373KO tumor foci on OBSCs; details: U373 KO on OBSCs
Method: as §1, §2, §3, §4, §5

[9] = area under the dose-response curve, trapezoidal rule
[10] = dose required to kill 10% of the tumor
[11] = dose required to kill 25% of the tumor
[12] = dose required to kill 50% of the tumor, read-out: EC50
[13] = dose required to kill 75% of the tumor
[14] = dose required to kill 90% of the tumor, read-out: EC90
[15] = dose required to kill 50% of the tumor
[16] = dose required to kill 90% of the tumor

Structure (SMILES): N.N.O=C([O-])C1(C(=O)[O-])CCC1.[Pt+2] [Carboplatin]
- Killing at highest dose [1]: 1.00E+00 fraction of tumor population killed
- AUC [1, 9]: 1.03E+01
- EC10 [1, 10]: 1.16 µM
- EC25 [1, 11]: 2.91 µM
- EC50 [1, 12]: 5.81 µM
- EC75 [1, 13]: 8.72 µM
- EC90 [1, 14]: 26 µM
- Slope ([1]; slope through the EC50): -8.60E-02
- Killing at highest dose [2]: 1.00E+00 fraction of tumor population killed
- AUC [2, 9]: 1.89E+02
- EC10 [2, 10]: 117 µM
- EC25 [2, 11]: 119 µM
- EC50 [2, 15]: 122 µM
- EC75 [2, 13]: 125 µM
- EC90 [2, 16]: 213 µM
- Slope ([2]; slope through the EC50): -8.00E-02
- Killing at highest dose [3]: 1.00E+00 fraction of tumor population killed
- AUC [3, 9]: 1.22E+02
- EC10 [3, 10]: 4.17 µM
- EC25 [3, 11]: 14 µM
- EC50 [3, 15]: 133 µM
- EC75 [3, 13]: 193 µM
- EC90 [3, 16]: 229 µM
- Slope ([3]; slope through the EC50): -4.20E-03
- Killing at highest dose [4]: 1.00E+00 fraction of tumor population killed
- AUC [4, 9]: 1.47E+02
- EC10 [4, 10]: 59.7 µM
- EC25 [4, 11]: 71.8 µM
- EC50 [4, 12]: 91.9 µM
- EC75 [4, 13]: 157 µM
- EC90 [4, 14]: 215 µM
- Slope ([4]; slope through the EC50): -1.24E-02
- Killing at highest dose [5]: 1.00E+00 fraction of tumor population killed
- AUC [5, 9]: 3.11E+02
- EC10 [5, 10]: 93.2 µM
- EC25 [5, 11]: 103 µM
- EC50 [5, 15]: 176 µM
- EC75 [5, 13]: 250 µM
- EC90 [5, 16]: 700 µM
- Slope ([5]; slope through the EC50): -3.40E-03
- DSS (drug sensitivity score) [6]: 88
- Killing at highest dose [7]: 1.00E+00 fraction of tumor population killed
- AUC [7, 9]: 1.79E+02
- EC10 [7, 10]: 4.76 µM
- EC25 [7, 11]: 20 µM
- EC50 [7, 12]: 86.1 µM
- EC75 [7, 13]: 211 µM
- EC90 [7, 14]: 583 µM
- Slope ([7]; slope through the EC50): -3.59E-03
- Killing at highest dose [8]: 9.99E-01 fraction of tumor population killed
- AUC [8, 9]: 1.92E+02
- EC10 [8, 10]: 9.09 µM
- EC25 [8, 11]: 125 µM
- EC50 [8, 15]: 172 µM
- EC75 [8, 13]: 219 µM
- EC90 [8, 16]: 248 µM
- Slope ([8]; slope through the EC50): -5.29E-03
